Measured values reported in ChEMBL document CHEMBL1138164, “Synthesis and structure-activity relationships of novel pyrrolocarbazole lactam analogs as potent and cell-permeable inhibitors of poly(ADP-ribose)polymerase-1 (PARP-1)” (Bioorg Med Chem Lett, 2006).
Converted amounts (≈) assume the structure as drawn.

Tested on: not listed separately
Assay: Aqueous solubility of compound
Format: physicochemical
Settings: water (aqueous)

Row | SMILES | solubility [µg/mL]
1 | O=C1NCc2c1c1c(c3[nH]c4ccccc4c23)CCC1 | < 1
2 | NCc1ccc2[nH]c3c4c(c5c(c3c2c1)CNC5=O)CCC4 | 100 (≈ 343 µM)

Tested on: PC-12
Assay: Efficacy in PC12 cells assessed by recovery of NAD+ at 30 uM
Format: functional, Rattus norvegicus
Settings: not given

Row | SMILES | Efficacy [%]
3 | CN(C)CCNC(=O)c1ccc2[nH]c3c4c(c5c(c3c2c1)CNC5=O)CCC4 | 36
4 | O=C(NCCN1CCOCC1)c1ccc2[nH]c3c4c(c5c(c3c2c1)CNC5=O)CCC4 | 27
5 | COC(=O)c1ccc2[nH]c3c4c(c5c(c3c2c1)CNC5=O)CCC4 | 134
6 | O=C1NCc2c1c1c(c3[nH]c4ccc(Cl)cc4c23)CCC1 | 133
7 | O=C1NCc2c1c1c(c3[nH]c4ccc(C(=O)N5CCOCC5)cc4c23)CCC1 | 74
8 | NCc1ccc2[nH]c3c4c(c5c(c3c2c1)CNC5=O)CCC4 | 102
9 | N#Cc1ccc2[nH]c3c4c(c5c(c3c2c1)CNC5=O)CCC4 | 122
10 | CN(Cc1ccccn1)C(=O)c1ccc2[nH]c3c4c(c5c(c3c2c1)CNC5=O)CCC4 | 44
11 | NCCCCC(N)C(=O)NCc1ccc2[nH]c3c4c(c5c(c3c2c1)CNC5=O)CCC4 (stereo not given) | 48
12 | O=C(O)c1ccc2[nH]c3c4c(c5c(c3c2c1)CNC5=O)CCC4 | 65
13 | O=C(NCCn1ccnn1)c1ccc2[nH]c3c4c(c5c(c3c2c1)CNC5=O)CCC4 | 28
14 | Cc1ccc2[nH]c3c4c(c5c(c3c2c1)CNC5=O)CCC4 | 50
15 | CN(Cc1ccncc1)C(=O)c1ccc2[nH]c3c4c(c5c(c3c2c1)CNC5=O)CCC4 | 101
16 | CN(CCc1c[nH]cn1)C(=O)c1ccc2[nH]c3c4c(c5c(c3c2c1)CNC5=O)CCC4 | 39

Tested on: PC-12
Assay: Potency in PC12 cells assessed by recovery of NAD+ at 1 uM
Format: functional, Rattus norvegicus
Settings: not given

Row | SMILES | Activity [%]
17 | O=C1NCc2c1c1c(c3[nH]c4ccccc4c23)CCC1 | 48
18 | CN(C)CCNC(=O)c1ccc2[nH]c3c4c(c5c(c3c2c1)CNC5=O)CCC4 | 6
19 | O=C(NCCN1CCOCC1)c1ccc2[nH]c3c4c(c5c(c3c2c1)CNC5=O)CCC4 | 7
20 | O=C1NCc2c1c1c(c3[nH]c4ccc(Br)cc4c23)CCC1 | 28
21 | COC(=O)c1ccc2[nH]c3c4c(c5c(c3c2c1)CNC5=O)CCC4 | 38
22 | O=C1NCc2c1c1c(c3[nH]c4ccc(Cl)cc4c23)CCC1 | 26
23 | O=C1NCc2c1c1c(c3[nH]c4ccc(C(=O)N5CCOCC5)cc4c23)CCC1 | 18
24 | NCc1ccc2[nH]c3c4c(c5c(c3c2c1)CNC5=O)CCC4 | 39
25 | N#Cc1ccc2[nH]c3c4c(c5c(c3c2c1)CNC5=O)CCC4 | 26
26 | CN(Cc1ccccn1)C(=O)c1ccc2[nH]c3c4c(c5c(c3c2c1)CNC5=O)CCC4 | 11
27 | NCCCCC(N)C(=O)NCc1ccc2[nH]c3c4c(c5c(c3c2c1)CNC5=O)CCC4 (stereo not given) | 2
28 | O=C(O)c1ccc2[nH]c3c4c(c5c(c3c2c1)CNC5=O)CCC4 | 24
29 | O=C(NCCn1ccnn1)c1ccc2[nH]c3c4c(c5c(c3c2c1)CNC5=O)CCC4 | 12
30 | Cc1ccc2[nH]c3c4c(c5c(c3c2c1)CNC5=O)CCC4 | 17
31 | CN(Cc1ccncc1)C(=O)c1ccc2[nH]c3c4c(c5c(c3c2c1)CNC5=O)CCC4 | 23
32 | CN(CCc1c[nH]cn1)C(=O)c1ccc2[nH]c3c4c(c5c(c3c2c1)CNC5=O)CCC4 | 5

Tested on: PC-12
Assay: Potency in PC12 cells assessed by recovery of NAD+ at 10 uM
Format: functional, Rattus norvegicus
Settings: not given

Row | SMILES | Activity [%]
33 | O=C1NCc2c1c1c(c3[nH]c4ccccc4c23)CCC1 | 68
34 | O=C1NCc2c1c1c(c3[nH]c4ccc(Br)cc4c23)CCC1 | 47
35 | N#Cc1ccc2[nH]c3c4c(c5c(c3c2c1)CNC5=O)CCC4 | 74
